According to patent publication US20230181535A1, “UBIQUITIN-LIGASE INHIBITORS FOR THE TREATMENT OF CANCER” (FUNDACIÓN PROFESOR NOVOA SANTOS, priority 2020, published 2023):
“And” between values parts separate entries of the source, which are not always exact repeats. Identical values can stand only once. “Also recorded” adds a separate entry of the source.

What was measured:
HT-29 cells = assay: Immunofluorescence of E-cadherin, HT-29; assay type: cell-based, human
Protocol: For western blot analysis, cells were treated with the indicated inhibitors for 48 h and the whole cell extracts were obtained as described previously. Twenty micrograms of lysates were resolved on a 10% polyacrilamide SDS-PAGE followed by western blot analysis performed as previously described. For immunofluorescence assays cells were grown for 24 h on glass coverslips and treated with the indicated inhibitors for 48 h. Cells were fixed with 4% PFA for 15 min, permeabilized with 0.5% […] and incubated with E-cadherin antibody for 2 h. Coverslips were incubated with fluorescein-tagged secondary antibody (Dakopatts, Sweden) for […]. Finally coverslips were mounted with ProLong Gold antifade reagent (LifeTech, UK) and images were taken in epifluorescence microscope (Olympus) using 40× objective. Immunofluorescence of E-cadherin and DNA content analysis for FIGS. 22-23 were performed culturing of HT-29 human colorectal adenocarcinoma cell line in 384-well plates with densities of 3,000 cells per well in a total volume of 25 μl. After the completion of the staining, four images (2×2 array) of each well were taken with Vala Sciences' SIM™ with a 20× objective. Each image was acquired as a SIM Synthetic Focus with a z-stack range of 6 μm with 1 μm steps. The SIM Synthetic Focus feature will compile a “best focus” images from multiple images. One set of SIM Synthetic Focus images were taken in the DAPI channel for Hoechst 33342 staining, and another set of images were taken in the FITC channel for anti-E-cadherin-AlexaFluor488 labeling and analysed by Structured Illumination Microscopy (SIM™) platform to image the cells and Vala's CyteSeer® Cell-Cell Junction Algorithm to quantify the degree of expression and intracellular location of E-cadherin Vala's CyteSeer® Software can also measure relative DNA content by analyzing Total Integrated Intensity (TII) of the Nuclear Image (Ni) on the Nuclear Mask (Nm). This analysis was performed by Vala Science. Twenty compounds from were assayed in a “blinded” manner, at 2 test concentrations in 6 replicate wells for first assay and 3 replicate for second assay.

[1] = tested on: mouse cryopreserved hepatocytes; assay: Metabolite profiling in mouse cryopreserved hepatocytes; assay type: in vitro ADME; conditions: for Area percentage in sample, 0 minute control / Area percentage in sample, 10 minute sample / Area percentage in sample, 20 minute sample / Absolute area in sample, 0 minute control / Absolute area in sample, 10 minute sample / Absolute area in sample, 20 minute sample: mouse hepatocyte samples; for Absolute area in sample, 0 minute control / Absolute area in sample, 10 minute sample / Absolute area in sample, 20 minute sample: XIC area
Protocol: (§1) Test compound (final substrate concentration 3 μM; final DMSO concentration 0.25%) were pre-incubated at 37° C., prior to the addition of a suspension of cryopreserved hepatocytes (final cell density 0.5×10^6 viable cells/mL in Williams E media supplemented with 2 mM L glutamine and 25 mM HEPES) to initiate the reaction. The reactions were stopped with acetonitrile containing internal standard at the appropriate time points ([…]). The termination plates were centrifuged at 2500 rpm at 4° C. for 30 minute to precipitate the protein. Following the hepatocyte stability assays, the samples were utilized for metabolite profiling. Hepatocyte stability in mouse and human was performed by using the incubation of tested compound (3 μM) with cryopreserved hepatocytes in suspension. Samples were removed at 6 time points over the course of a 60 min experiment and remaining test compound at each time point was analysed by using LC-MS/MS. Then, data was analysed and an intrinsic clearance (CLint) with standard error and half-life (t½) reported.
The samples from the hepatocyte stability assay were utilized for metabolite profiling. The 10 and 20 minute samples were compared to the 0 minute control sample to identified the metabolites formed. […] The areas and percentages reported for the parent and metabolites have been calculated using the XIC data; it has been assumed that each metabolite has the same ionization efficiency and that the sensitivity of the metabolite has not been affected by the biotransformation. […] For accuracy, a ppm error of less than 5 is desirable; when the response for a metabolite observed is low the ppm error maybe greater than 5. Where a metabolite has been referred to as a potential oxidation it can refer to a potential hydroxylation, epoxidation or oxide formation. Representative collision induced dissociation (CID) mass spectra were obtained for the metabolites found. Structural elucidation was then performed on the metabolite observed. The data are processed using Metabolynx XS (Waters Ltd). When the compound structure has been provided, the data is processed using mass defect filtering1 with the dealkylation tool2; if the structure is not provided then mass defect, filtering alone is used. […] The de-alkylation tool is used in addition to the mass defect filtering to take into account that when the molecule cleaves metabolically e.g. at an amine group, the mass defect may change. Following this initial processing, the data is compared to the control sample to determine whether a series of expected metabolites are observed. Finally, the same data set is processed, using 1 a.m.u. windows across the whole data acquisition range to look for non-predicted or unexpected metabolites. After the automated Metabolynx XS processing, the data are reviewed to confirm the validity of the detected metabolites and to ensure correct assignment of the metabolite observed. The elemental formula for the observed ion and compound is reported, along with the error in parts per million (ppm) for the measured ion compared to the theoretical mass of the ion. […] Therefore, structures are depicted in Markush format3 with the shaded area showing potential sites of modification. Hepatocyte stability, metabolic profiling and test compound analysis was performed by Cyprotex Discovery.

[2] = tested on: human cryopreserved hepatocytes; assay: Hepatocyte stability, human; assay type: in vitro ADME; conditions: 3 μM
Protocol: as §1

[3] = molecular target: T1, E3 ubiquitin-ligase Hakai (Mus musculus, UniProt Q9JIY2); assay: In vivo Hakai-dependent ubiquitination assay in 293T cells; assay type: cell-based; conditions: vs DMSO
T1 construct: expressed in transfected cells; host or cells: HEK293T
T1 sequence (Q9JIY2 1-491): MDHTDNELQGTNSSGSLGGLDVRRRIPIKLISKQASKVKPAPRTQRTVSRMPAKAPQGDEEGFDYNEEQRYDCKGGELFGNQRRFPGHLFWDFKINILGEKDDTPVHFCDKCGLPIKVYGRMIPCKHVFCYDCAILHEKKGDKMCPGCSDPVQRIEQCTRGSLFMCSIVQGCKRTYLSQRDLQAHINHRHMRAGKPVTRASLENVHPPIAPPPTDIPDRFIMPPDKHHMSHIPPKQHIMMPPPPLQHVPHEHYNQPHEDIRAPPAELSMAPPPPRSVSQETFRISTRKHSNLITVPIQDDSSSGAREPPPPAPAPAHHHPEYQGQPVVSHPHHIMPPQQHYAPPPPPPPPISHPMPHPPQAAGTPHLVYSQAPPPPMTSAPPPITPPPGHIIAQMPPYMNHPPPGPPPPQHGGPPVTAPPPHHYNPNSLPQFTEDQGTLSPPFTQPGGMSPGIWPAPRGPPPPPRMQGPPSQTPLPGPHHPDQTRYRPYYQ
Protocol: For ubiquitination assays, 750.000 HEK293T cells were seeded in 6-well cell culture plates and after 24 h were transfected with 0.25 μg Src, 0.75 μg Flag-Hakai, and 0.5 μg HA-ubiquitin with Lipofectamin 2000 (Invitrogen, UK). Six hours after transfection cells were treated with indicated concentrations of Hakin-1, Hakin-5 or the rest of the compounds tested for 36 h. Whole cell extracts were obtained in lysis buffer (20 mM Tris-HCl pH 7.5, 150 mM NaCl and 1% Triton X-100) containing 10 μg/ml leupeptin, 10 μg/ml aprotinin and 1 mM phenylmethanesulphonyl fluoride (PMSF), supplemented with 10 mM N-ethylmaleimide. Cells were harvested and subjected to western blotting using anti-HA antibody to detect ubiquitination.

Row | Structure (SMILES) | E-cadherin levels at cell-cell contacts (immunofluorescence) (HT-29 cells; 48 h, vs DMSO) | found in hepatocyte stability assay samples (Mouse) [1] | Area percentage in sample, 0 minute control [1] | Area percentage in sample, 10 minute sample [1] [%] | Area percentage in sample, 20 minute sample [1] [%] | Absolute area in sample, 0 minute control [1] | Absolute area in sample, 10 minute sample [1] | Absolute area in sample, 20 minute sample [1] | compound remaining after 60 min [2] | Hakai protein levels ([3]; 293T cells transfected with Src, Flag-Hakai and HA-ubiquitin) | ubiquitination mediated by Hakai ([3]; 293T cells transfected with Src, Flag-Hakai and HA-ubiquitin, western blotting anti-HA) | E-cadherin expression at cell-cell contacts (immunofluorescence, Image J) (HT-29 cells; 48 hours, 5-100 μM, vs DMSO vehicle control) | polarity compared to parent (LCMS) ([1]; metabolite from incubating compound #1 with mouse hepatocytes) | Hakai-induced ubiquitination ([3]; HEK293T cells transfected with Hakai and ubiquitin)
1 | O=C(O)c1ccc(-n2nnnc2SCC(=O)c2ccc([N+](=O)[O-])cc2)cc1 [Hakin-1, 4-(5-[2-(4-nitrophenyl)-2-oxoethyl]thiol-1H-tetrazol-1-yl)benzoic acid] | significant increase E-cadherin levels at cell-cell contacts | ✓ | 97.2% | 26.2 | 5.99 | 43574 | 14090 | 2877 | 77.3% | no effect was seen in Hakai protein levels; also recorded: without affecting Hakai protein levels | strongly reduces the ubiquitination mediated by Hakai in a doses dependent-manner; also recorded: specific inhibitor for Hakai-mediated ubiquitination |  |  | 
2 | O=C(O)c1ccc(-n2nnnc2SCC(O)c2ccc([N+](=O)[O-])cc2)cc1 (stereo not shown) [MKH1] |  | ✓ | 2.72% and 2.76% | 73.8 | 94 | 1235 | 39618 | 45169 | 95%-100% |  |  | significantly increase expression of E-cadherin | more polar than the parent | reduced ubiquitination at 20 μM and 100 μM
